Assay results as given in patent US11866450B2, “Modulators of Cystic Fibrosis Transmembrane Conductance regulator, pharmaceutical compositions, methods of treatment, and process for making the modulators” (priority 2018, dated 2024).

Target: CFTR-mediated chloride transport (Homo sapiens, UniProt P13569)
Type: cell-based
Details: enteroid cells incubated with test compound 18-24 hours, acute 10 μM forskolin and 300 nM Compound III; for Max. Activity: % of chloride transport with 3 μM Compound A, 3 μM Compound II and 300 nM acute Compound III triple combination control
Outline: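 Human intestinal enteroid cells incubated with compound 18–24 h at 37° C., then membrane potential dye (FLIPR) read 15 min after chloride-free stimulation with 10 μM forskolin, 100 μM IBMX and 300 nM Compound III. AUC expressed as % of triple-combination control (3 μM Compound A, 3 μM Compound II, 300 nM Compound III).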

Chain of CFTR-mediated chloride transport (P13569 whole entry, looked up): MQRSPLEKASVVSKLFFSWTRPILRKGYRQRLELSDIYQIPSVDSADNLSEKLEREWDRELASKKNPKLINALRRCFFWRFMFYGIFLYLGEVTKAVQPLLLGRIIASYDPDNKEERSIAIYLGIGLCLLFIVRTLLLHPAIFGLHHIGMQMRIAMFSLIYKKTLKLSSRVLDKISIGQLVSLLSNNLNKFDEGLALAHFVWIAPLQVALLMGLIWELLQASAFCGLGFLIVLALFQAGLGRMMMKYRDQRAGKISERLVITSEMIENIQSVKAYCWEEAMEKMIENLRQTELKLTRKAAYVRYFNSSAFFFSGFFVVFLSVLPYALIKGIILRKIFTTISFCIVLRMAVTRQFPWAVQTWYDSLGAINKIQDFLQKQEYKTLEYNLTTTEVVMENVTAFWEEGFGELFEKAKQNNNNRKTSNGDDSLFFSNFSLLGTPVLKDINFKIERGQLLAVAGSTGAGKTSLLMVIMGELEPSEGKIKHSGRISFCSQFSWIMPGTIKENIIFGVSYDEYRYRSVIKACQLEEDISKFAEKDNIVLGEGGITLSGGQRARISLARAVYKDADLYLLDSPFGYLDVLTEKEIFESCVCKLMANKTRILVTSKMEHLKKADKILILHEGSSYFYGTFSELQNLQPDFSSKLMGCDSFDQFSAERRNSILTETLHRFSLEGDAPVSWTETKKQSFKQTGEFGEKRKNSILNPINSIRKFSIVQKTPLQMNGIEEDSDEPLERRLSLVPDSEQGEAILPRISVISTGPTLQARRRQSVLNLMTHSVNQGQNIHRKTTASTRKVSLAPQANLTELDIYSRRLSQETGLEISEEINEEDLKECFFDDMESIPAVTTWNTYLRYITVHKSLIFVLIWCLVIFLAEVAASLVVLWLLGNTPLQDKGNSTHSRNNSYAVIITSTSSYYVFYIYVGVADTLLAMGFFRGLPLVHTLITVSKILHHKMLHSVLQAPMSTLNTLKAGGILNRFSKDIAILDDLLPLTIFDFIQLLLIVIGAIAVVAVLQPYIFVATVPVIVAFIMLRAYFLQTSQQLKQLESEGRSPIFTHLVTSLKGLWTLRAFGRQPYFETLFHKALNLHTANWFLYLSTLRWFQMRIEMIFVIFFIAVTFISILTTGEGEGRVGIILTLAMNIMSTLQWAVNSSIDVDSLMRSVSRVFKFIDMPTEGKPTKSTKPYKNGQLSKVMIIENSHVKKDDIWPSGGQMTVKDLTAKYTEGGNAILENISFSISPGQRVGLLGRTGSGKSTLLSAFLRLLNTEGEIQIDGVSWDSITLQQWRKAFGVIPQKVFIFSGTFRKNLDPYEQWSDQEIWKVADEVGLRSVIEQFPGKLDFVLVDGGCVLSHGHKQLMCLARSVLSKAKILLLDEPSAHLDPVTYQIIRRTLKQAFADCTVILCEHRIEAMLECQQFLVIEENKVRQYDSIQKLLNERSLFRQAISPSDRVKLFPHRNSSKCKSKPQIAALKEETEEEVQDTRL

Row | SMILES | EC50 [nM] | Max. Activity
1 | CC1(C)C[C@H]2CCCCNc3ccc(cn3)S(=O)(=O)NC(=O)c3ccc(-n4ccc(OCCC5(C(F)(F)F)CC5)n4)nc3N1C2 (single isomer, unassigned) [Compound 67, 12,12-dimethyl-8-(3-{2-[1-(trifluoromethyl)cyclopropyl]ethoxy}-1H-pyrazol-1-yl)-2λ^6-thia-3,9,11,19,21-pentaazatetracyclo[18.2.2.111,14.05,10]pentacosa-1(23),5,7,9,20(24),21-hexaene-2,2,4-trione] | < 1000 | +++ (+++ is >60%)
2 | CC1(C)C[C@H]2CCCCNc3ccc(cn3)S(=O)(=O)NC(=O)c3ccc(-n4ccc(OCCC5(C(F)(F)F)CC5)n4)nc3N1C2 (single isomer, unassigned) [Compound 68, 12,12-dimethyl-8-(3-{2-[1-(trifluoromethyl)cyclopropyl]ethoxy}-1H-pyrazol-1-yl)-2λ^6-thia-3,9,11,19,21-pentaazatetracyclo[18.2.2.111,14.05,10]pentacosa-1(23),5,7,9,20(24),21-hexaene-2,2,4-trione] | < 1000 | ++ (++ is 30-60%)
3 | CC1(C)C[C@H]2CCCNc3ccc(cn3)S(=O)(=O)NC(=O)c3ccc(-n4ccc(OCCC5(C(F)(F)F)CC5)n4)nc3N1C2 (single isomer, unassigned) [Compound 72, 12,12-dimethyl-8-(3-{2-[1-(trifluoromethyl)cyclopropyl]ethoxy}-1H-pyrazol-1-yl)-2λ^6-thia-3,9,11,18,20-pentaazatetracyclo[17.2.2.111,14.05,10]tetracosa-1(22),5,7,9,19(23),20-hexaene-2,2,4-trione] | > 3000 | + (+ is <30%)
4 | CC1(C)C[C@H]2CCCNc3ccc(cn3)S(=O)(=O)NC(=O)c3ccc(-n4ccc(OCCC5(C(F)(F)F)CC5)n4)nc3N1C2 (single isomer, unassigned) [Compound 73, 12,12-dimethyl-8-(3-{2-[1-(trifluoromethyl)cyclopropyl]ethoxy}-1H-pyrazol-1-yl)-2λ^6-thia-3,9,11,18,20-pentaazatetracyclo[17.2.2.111,14.05,10]tetracosa-1(22),5,7,9,19(23),20-hexaene-2,2,4-trione] | < 1000 | +++ (+++ is >60%)
5 | CC1(C)C[C@@H]2CN1c1nc(-n3ccc(OCCC4(C(F)(F)F)CC4)n3)ccc1C(=O)NS(=O)(=O)c1cccc(n1)NCCO2 (single isomer, unassigned) [Compound 74, 12,12-Dimethyl-8-(3-{2-[1-(trifluoromethyl)cyclopropyl]ethoxy}-1H-pyrazol-1-yl)-15-oxa-2λ^6-thia-3,9,11,18,23-pentaazatetracyclo[17.3.1.111,14.05,10]tetracosa-1(22),5(10),6,8,19(23),20-hexaene-2,2,4-trione] | 1000 to 3000 | + (+ is <30%)
6 | CC1(C)C[C@@H]2CN1c1nc(-n3ccc(OCCC4(C(F)(F)F)CC4)n3)ccc1C(=O)NS(=O)(=O)c1cccc(n1)NCCO2 (single isomer, unassigned) [Compound 75, 12,12-dimethyl-8-(3-{2-[1-(trifluoromethyl)cyclopropyl]ethoxy}-1H-pyrazol-1-yl)-15-oxa-2λ^6-thia-3,9,11,18,23-pentaazatetracyclo[17.3.1.111,14.05,10]tetracosa-1(22),5(10),6,8,19(23),20-hexaene-2,2,4-trione] | < 1000 | +++ (+++ is >60%)
7 | Cc1c2cnn1CCCC[C@H]1CN(c3nc(-n4ccc(OCCC5(C(F)(F)F)CC5)n4)ccc3C(=O)NS2(=O)=O)C(C)(C)C1 (single isomer, unassigned) [Compound 80, 21,21,23-Trimethyl-4-(3-{2-[1-(trifluoromethyl)cyclopropyl]ethoxy}-1H-pyrazol-1-yl)-10λ^6-thia-1,3,9,13,14-pentaazatetracyclo[17.2.1.111,14.02,7]tricosa-2,4,6,11(23),12-pentaene-8,10,10-trione] | > 3000 | + (+ is <30%)
8 | Cc1c2cnn1CCCC[C@H]1CN(c3nc(-n4ccc(OCCC5(C(F)(F)F)CC5)n4)ccc3C(=O)NS2(=O)=O)C(C)(C)C1 (single isomer, unassigned) [Compound 81, 21,21,23-trimethyl-4-(3-{2-[1-(trifluoromethyl)cyclopropyl]ethoxy}-1H-pyrazol-1-yl)-10λ^6-thia-1,3,9,13,14-pentaazatetracyclo[17.2.1.111,14.02,7]tricosa-2,4,6,11(23),12-pentaene-8,10,10-trione] | < 1000 | ++ (++ is 30-60%)
9 | CC1(C)C[C@H]2CCCCNc3cccc(n3)S(=O)(=O)NC(=O)c3ccc(-n4cc(OCCC5(C(F)(F)F)CC5)cn4)nc3N1C2 (single isomer, unassigned) [Compound 82, 12,12-Dimethyl-8-(4-{2-[1-(trifluoromethyl)cyclopropyl]ethoxy}-1H-pyrazol-1-yl)-2λ^6-thia-3,9,11,19,24-pentaazatetracyclo[18.3.1.111,14.05,10]pentacosa-1(23),5,7,9,20(24),21-hexaene-2,2,4-trione] | > 3000 | + (+ is <30%)
10 | CC1(C)C[C@H]2CCCCNc3cccc(n3)S(=O)(=O)NC(=O)c3ccc(-n4cc(OCCC5(C(F)(F)F)CC5)cn4)nc3N1C2 (single isomer, unassigned) [Compound 83, 12,12-dimethyl-8-(4-{2-[1-(trifluoromethyl)cyclopropyl]ethoxy}-1H-pyrazol-1-yl)-2λ^6-thia-3,9,11,19,24-pentaazatetracyclo[18.3.1.111,14.05,10]pentacosa-1(23),5,7,9,20(24),21-hexaene-2,2,4-trione] | < 1000 | ++ (++ is 30-60%)
11 | CC1(C)C[C@H]2CCCCc3cccc(n3)S(=O)(=O)NC(=O)c3ccc(-n4ccc(OCCC5(C(F)(F)F)CC5)n4)nc3N1C2 (single isomer, unassigned) [Compound 86, 12,12-dimethyl-8-(3-{2-[1-(trifluoromethyl)cyclopropyl]ethoxy}-1H-pyrazol-1-yl)-2λ^6-thia-3,9,11,23-tetraazatetracyclo[17.3.1.111,14.05,10]tetracosa-1(23),5,7,9,19,21-hexaene-2,2,4-trione] | > 3000 | + (+ is <30%)
12 | CC1(C)C[C@H]2CCCCc3cccc(n3)S(=O)(=O)NC(=O)c3ccc(-n4ccc(OCCC5(C(F)(F)F)CC5)n4)nc3N1C2 (single isomer, unassigned) [Compound 87, 12,12-dimethyl-8-(3-{2-[1-(trifluoromethyl)cyclopropyl]ethoxy}-1H-pyrazol-1-yl)-2λ^6-thia-3,9,11,23-tetraazatetracyclo[17.3.1.111,14.05,10]tetracosa-1(23),5,7,9,19,21-hexaene-2,2,4-trione] | < 1000 | +++ (+++ is >60%)
13 | Cc1nn2cc1S(=O)(=O)NC(=O)c1ccc(-n3ccc(OCCC4(C(F)(F)F)CC4)n3)nc1N1C[C@H](CCCC2)CC1(C)C (single isomer, unassigned) [Compound 91, 12,21,21-Trimethyl-4-(3-{2-[1-(trifluoromethyl)cyclopropyl]ethoxy}-1H-pyrazol-1-yl)-10λ^6-thia-1,3,9,13,14-pentaazatetracyclo[17.2.1.111,14.02,7]tricosa-2,4,6,11(23),12-pentaene-8,10,10-trione] | > 3000 | + (+ is <30%)
14 | Cc1nn2cc1S(=O)(=O)NC(=O)c1ccc(-n3ccc(OCCC4(C(F)(F)F)CC4)n3)nc1N1C[C@H](CCCC2)CC1(C)C (single isomer, unassigned) [Compound 92, 12,21,21-trimethyl-4-(3-{2-[1-(trifluoromethyl)cyclopropyl]ethoxy}-1H-pyrazol-1-yl)-10λ^6-thia-1,3,9,13,14-pentaazatetracyclo[17.2.1.111,14.02,7]tricosa-2,4,6,11(23),12-pentaene-8,10,10-trione] | < 1000 | ++ (++ is 30-60%)
15 | CC1(C)C[C@H]2CCCCOc3ccc(cc3)S(=O)(=O)NC(=O)c3ccc(-n4ccc(OCCC5(C(F)(F)F)CC5)n4)nc3N1C2 (single isomer, unassigned) [Compound 95, 12,12-dimethyl-8-(3-{2-[1-(trifluoromethyl)cyclopropyl]ethoxy}-1H-pyrazol-1-yl)-19-oxa-2λ^6-thia-3,9,11-triazatetracyclo[18.2.2.111,14.05,10]pentacosa-1(22),5,7,9,20,23-hexaene-2,2,4-trione] | < 1000 | ++ (++ is 30-60%)
16 | CC1(C)C[C@H]2CCCCOc3ccc(cc3)S(=O)(=O)NC(=O)c3ccc(-n4ccc(OCCC5(C(F)(F)F)CC5)n4)nc3N1C2 (single isomer, unassigned) [Compound 96, 12,12-dimethyl-8-(3-{2-[1-(trifluoromethyl)cyclopropyl]ethoxy}-1H-pyrazol-1-yl)-19-oxa-2λ^6-thia-3,9,11-triazatetracyclo[18.2.2.111,14.05,10]pentacosa-1(22),5,7,9,20,23-hexaene-2,2,4-trione] | > 3000 | + (+ is <30%)
17 | CC1(C)C[C@H]2CCCOc3ccc(cc3)S(=O)(=O)NC(=O)c3ccc(-n4ccc(OCCC5(C(F)(F)F)CC5)n4)nc3N1C2 (single isomer, unassigned) [Compound 99, 12,12-dimethyl-8-(3-{2-[1-(trifluoromethyl)cyclopropyl]ethoxy}-1H-pyrazol-1-yl)-18-oxa-2λ^6-thia-3,9,11-triazatetracyclo[17.2.2.111,14.05,10]tetracosa-1(21),5,7,9,19,22-hexaene-2,2,4-trione] | < 1000 | +++ (+++ is >60%)
